From ChEMBL document CHEMBL1124283, “1,4-Dihydropyridine antagonist activities at the calcium channel: a quantitative structure-activity relationship approach” (J Med Chem, 1988) come the findings set out here.

For one assay, the species on record is Cavia porcellus. Put plainly: Effective concentration required to produce mechanical response determined in muscle strips of guinea pig. The settings on record: Muscle tissue, read-out: Log 1/EC50 (converted). The class given is functional.
Assay [1] in a line: Compound was tested for its antagonist activity against calcium channel. The class given is functional, Homo sapiens.

As for `COC(=O)C1=C(C)NC(C)=C(C(=O)OC)C1c1ccc(N(C)C)cc1`, in the assay filed under Cavia porcellus, the EC50 was 100 µM. As for `COC(=O)C1=C(C)NC(C)=C(C(=O)OC)C1c1ccccc1`, the “Log 1/IC50” value in assay [1] was determined as 7.85. The EC50 in the assay listed under Cavia porcellus is 0.0282 µM.

Turning to `COC(=O)C1=C(C)N=C(C)/C(=C(\O)OC)C1c1cccc(C)c1` (stereo not drawn), the “Log 1/IC50” value in assay [1] was 7.28. For the same compound, in the assay listed under Cavia porcellus, the EC50 is 0.11 µM.

On to `COC(=O)C1=C(C)N=C(C)/C(=C(\O)OC)C1c1c(F)c(F)c(F)c(F)c1F` (stereo not drawn), for which the “Log 1/IC50” value in assay [1] was found to be 10.37. In addition, the EC50 in the assay filed under Cavia porcellus was 0.00437 µM. Take `COC(=O)C1=C(C)N=C(C)/C(=C(\O)OC)C1c1cccc(C#N)c1` (stereo not drawn): the “Log 1/IC50” value in assay [1] turned out to be 8.68. Further, the EC50 in the assay filed under Cavia porcellus was 0.0347 µM.

Consider `COC(=O)C1=C(C)N=C(C)/C(=C(\O)OC)C1c1ccc(C)cc1` (stereo not drawn), for which the “Log 1/IC50” value in assay [1] is 7.18. Consider `COC(=O)C1=C(C)N=C(C)/C(=C(/O)OC)C1c1c(F)cccc1Cl` (stereo not drawn), for which the “Log 1/IC50” value in assay [1] came out at 8.37. For the same compound, the EC50 in the assay listed under Cavia porcellus is 0.00759 µM. On to `COC(=O)C1=C(C)N=C(C)/C(=C(\O)OC)C1c1cccc(F)c1` (stereo not drawn), for which the “Log 1/IC50” value in assay [1] worked out at 8.49. Besides, the EC50 in the assay listed under Cavia porcellus is 0.0209 µM. For `COC(=O)C1=C(C)N=C(C)/C(=C(\O)OC)C1c1ccccc1I` (stereo not drawn), the “Log 1/IC50” value in assay [1] is given as 10.8. Further, the EC50 in the assay listed under Cavia porcellus was 0.0468 µM. Take `COC(=O)C1=C(C)N=C(C)/C(=C(\O)OC)C1c1ccccc1C#N` (stereo not drawn): the “Log 1/IC50” value in assay [1] was determined as 9.18. The EC50 in the assay filed under Cavia porcellus is 0.0158 µM.

With `COC(=O)C1=C(C)N=C(C)/C(=C(\O)OC)C1c1cc(Cl)cc(Cl)c1` (stereo not drawn), in the assay listed under Cavia porcellus, the EC50 was 0.0933 µM.

On to `COC(=O)C1=C(C)N=C(C)/C(=C(\O)OC)C1c1cccc(N(C)C)c1` (stereo not drawn), for which the EC50 in the assay listed under Cavia porcellus is 0.891 µM. As for `COC(=O)C1=C(C)N=C(C)/C(=C(\O)OC)C1c1cccc(OC)c1` (stereo not drawn), the “Log 1/IC50” value in assay [1] is 7.27. Also, the EC50 in the assay listed under Cavia porcellus was 0.191 µM. As for `COC(=O)C1=C(C)N=C(C)/C(=C(\O)OC)C1c1cccc(OC(=O)c2ccccc2)c1` (stereo not drawn), the EC50 in the assay listed under Cavia porcellus is 6.31 µM.

For `COC(=O)C1=C(C)N=C(C)/C(=C(\O)OC)C1c1cccc([N+](C)(C)C)c1` (stereo not drawn), in assay [1], the “Log 1/IC50” value is below 5. Further, in the assay filed under Cavia porcellus, the EC50 was 50.1 µM. With `COC(=O)C1=C(C)N=C(C)/C(=C(\O)OC)C1c1cc([N+](=O)[O-])ccc1O` (stereo not drawn), in the assay listed under Cavia porcellus, the EC50 is 0.1 µM.

With `COC(=O)C1=C(C)N=C(C)/C(=C(\O)OC)C1c1ccc(F)cc1` (stereo not drawn), the “Log 1/IC50” value in assay [1] turned out to be 7.46. Moreover, the EC50 in the assay filed under Cavia porcellus is 0.129 µM. For `COC(=O)C1=C(C)N=C(C)/C(=C(\O)OC)C1c1cccc(O)c1` (stereo not drawn), in the assay filed under Cavia porcellus, the EC50 was 1 µM.

`COC(=O)C1=C(C)N=C(C)/C(=C(\O)OC)C1c1ccccc1OC` (stereo not drawn): the “Log 1/IC50” value in assay [1] is listed as 7.87. Also, in the assay listed under Cavia porcellus, the EC50 is 0.0575 µM.

For the compound `COC(=O)C1=C(C)N=C(C)/C(=C(\O)OC)C1c1cccc(Br)c1` (stereo not drawn), the EC50 in the assay listed under Cavia porcellus was 0.00129 µM.

As for `COC(=O)C1=C(C)N=C(C)/C(=C(/O)OC)C1c1cccc(Cl)c1` (stereo not drawn), the “Log 1/IC50” value in assay [1] worked out at 9.3. Moreover, the EC50 in the assay filed under Cavia porcellus is 0.0158 µM.

Turning to `COC(=O)C1=C(C)N=C(C)/C(=C(\O)OC)C1c1cccc(C(F)(F)F)c1` (stereo not drawn), the EC50 in the assay listed under Cavia porcellus was 0.0741 µM. Take `COC(=O)C1=C(C)N=C(C)/C(=C(\O)OC)C1c1cc(OC)c(OC)cc1OC` (stereo not drawn): the EC50 in the assay filed under Cavia porcellus was 1000 µM. Consider `COC(=O)C1=C(C)N=C(C)/C(=C(\O)OC)C1c1ccccc1F` (stereo not drawn), for which the “Log 1/IC50” value in assay [1] stood at 8.44. Also, the EC50 in the assay filed under Cavia porcellus is 0.0427 µM. Consider `C=Cc1ccccc1C1C(C(=O)OC)=C(C)N=C(C)/C1=C(\O)OC` (stereo not drawn), for which the EC50 in the assay listed under Cavia porcellus was 0.00447 µM. Consider `COC(=O)C1=C(C)N=C(C)/C(=C(\O)OC)C1c1ccc(Cl)cc1` (stereo not drawn), for which, in assay [1], the “Log 1/IC50” value was found to be 6.22. In addition, the EC50 in the assay listed under Cavia porcellus was 8.13 µM. For `COC(=O)C1=C(C)N=C(C)/C(=C(\O)OC)C1c1cc([N+](=O)[O-])ccc1Cl` (stereo not drawn), the EC50 in the assay listed under Cavia porcellus was 0.0302 µM. `COC(=O)C1=C(C)N=C(C)/C(=C(\O)OC)C1c1ccc(C#N)cc1` (stereo not drawn): the EC50 in the assay listed under Cavia porcellus was 3.47 µM. For the compound `CCc1ccccc1C1C(C(=O)OC)=C(C)N=C(C)/C1=C(\O)OC` (stereo not drawn), in the assay listed under Cavia porcellus, the EC50 is 0.00646 µM.

As to `COC(=O)C1=C(C)N=C(C)/C(=C(\O)OC)C1c1cccc(OC(C)=O)c1` (stereo not drawn), in the assay filed under Cavia porcellus, the EC50 is 6.03 µM. In the case of `COC(=O)C1=C(C)N=C(C)/C(=C(\O)OC)C1c1ccc(I)cc1` (stereo not drawn), in the assay filed under Cavia porcellus, the EC50 is 22.9 µM. For `COC(=O)C1=C(C)N=C(C)/C(=C(\O)OC)C1c1cccc(N=[N+]=[N-])c1` (stereo not drawn), the “Log 1/IC50” value in assay [1] was found to be 8.67.

In the case of `COC(=O)C1=C(C)N=C(C)/C(=C(\O)OC)C1c1ccccc1C` (stereo not drawn), in assay [1], the “Log 1/IC50” value stood at 8.71. The EC50 in the assay filed under Cavia porcellus is 0.00603 µM. As to `COC(=O)C1=C(C)N=C(C)/C(=C(\O)OC)C1c1c(Cl)cccc1Cl` (stereo not drawn), the EC50 in the assay listed under Cavia porcellus was 0.00191 µM. In the case of `COC(=O)C1=C(C)N=C(C)/C(=C(\O)OC)C1c1ccccc1Cl` (stereo not drawn), the “Log 1/IC50” value in assay [1] is recorded as 9.78. Moreover, the EC50 in the assay filed under Cavia porcellus was 0.00219 µM. For `CCOc1ccccc1C1C(C(=O)OC)=C(C)N=C(C)/C1=C(\O)OC` (stereo not drawn), the EC50 in the assay filed under Cavia porcellus was 0.11 µM. As to `COC(=O)C1=C(C)N=C(C)/C(=C(\O)OC)C1c1cccc(N)c1` (stereo not drawn), in the assay filed under Cavia porcellus, the EC50 was 2 µM. Consider `COC(=O)C1=C(C)N=C(C)/C(=C(\O)OC)C1c1ccccc1C(F)(F)F` (stereo not drawn), for which the EC50 in the assay filed under Cavia porcellus was 0.00151 µM.

Turning to `COC(=O)C1=C(C)N=C(C)/C(=C(\O)OC)C1c1cccc(I)c1` (stereo not drawn), in the assay listed under Cavia porcellus, the EC50 is 0.0417 µM. As to `COC(=O)C1=C(C)N=C(C)/C(=C(\O)OC)C1c1cc(C)ccc1C` (stereo not drawn), the EC50 in the assay filed under Cavia porcellus is 0.1 µM.

Take `COC(=O)C1=C(C)N=C(C)/C(=C(\O)OC)C1c1ccccc1Br` (stereo not drawn): the “Log 1/IC50” value in assay [1] amounted to 10.49. Besides, in the assay listed under Cavia porcellus, the EC50 is 0.00759 µM.

`COC(=O)C1=C(C)N=C(C)/C(=C(\O)OC)C1c1ccccc1N` (stereo not drawn): the EC50 in the assay filed under Cavia porcellus was 39.8 µM. `COC(=O)C1=C(C)N=C(C)/C(=C(\O)OC)C1c1cccc(Cl)c1Cl` (stereo not drawn): the EC50 in the assay filed under Cavia porcellus is 0.0191 µM. `COC(=O)C1=C(C)NC(C)=C(C(=O)OC)C1c1ccccc1[N+](=O)[O-]` [NIFEDIPINE]: in assay [1], the “Log 1/IC50” value is reported as 9.08. In addition, the EC50 in the assay filed under Cavia porcellus was 0.00513 µM.
